This assay concerns the target T1, human CCR2B (Homo sapiens, UniProt P41597).
T1 construct: host or cells: CHO-K1 (CHOK1-CCR2B-A5)
T1 sequence (P41597 1-360 isoform P41597-2): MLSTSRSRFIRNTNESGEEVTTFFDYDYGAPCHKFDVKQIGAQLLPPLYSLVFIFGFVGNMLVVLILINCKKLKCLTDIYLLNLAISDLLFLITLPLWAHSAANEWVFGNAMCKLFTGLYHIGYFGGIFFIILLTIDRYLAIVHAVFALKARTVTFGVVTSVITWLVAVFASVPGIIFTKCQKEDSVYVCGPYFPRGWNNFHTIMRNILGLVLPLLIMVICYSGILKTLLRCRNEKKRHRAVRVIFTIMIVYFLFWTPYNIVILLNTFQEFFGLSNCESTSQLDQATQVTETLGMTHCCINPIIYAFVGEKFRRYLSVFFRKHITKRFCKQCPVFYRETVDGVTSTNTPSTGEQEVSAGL
Put plainly: Calcium mobilization assay (FLIPR, MCP-1 stimulated CHOK1-CCR2B-A5 cells). The format is cell-based. Particulars: antagonist activity vs 20 nM MCP-1, CHOK1-CCR2B-A5 cells. On the procedure:
Calcium Mobilization Assay
CHOK1-CCR2B-A5 cells (from Euroscreen) stably overexpressing the human chemokine receptor 2 isoform B were cultured in Nutrient Hams F12 medium supplemented with 5% FBS, 100 U/ml penicillin, 100 μg/ml streptomycin, 400 μg/ml G418 and 5 μg/ml puromycin.
For the assay cells were grown overnight in 384-well black clear flat bottom polystyrene plates (Costar) at 37° C. at 5% CO2. After washing with DMEM, 20 mM Hepes, 2.5 mM probenecid, 0.1% BSA (DMEM assay buffer) cells were loaded with 4 μM Fluo-4 in the same DMEM assay buffer for 2 hours at 30° C. Excess dye was removed and cells were washed with DMEM assay buffer. 384-well compound plates were prepared with DMEM assay buffer/0.5% DMSO with or without various concentrations of test compounds. Usually compounds were tested for agonist and antagonist activity.
Test compounds were added to the assay plate and agonist activity was monitored as fluorescence for 80 seconds with a FLIPR (488 nm excitation; 510-570 nm emission; Molecular Devices). After 20-30 min. of incubation at 30° C., 20 nM MCP-1 (R&D; Roche) was added and fluorescence was monitored again for 80 seconds. Increases in intracellular calcium are reported as maximum fluorescence after agonist exposure minus basal fluorescence before exposure. Antagonist activity is indicated as inhibitor concentration required for 50% inhibition of specific calcium increases.
Background: A change in cytosolic calcium serves as a functional read-out for many receptors and channels.

Structures are written as SMILES.

As usually defined, the IC50 is the point on the concentration scale where inhibition reaches its midpoint. Take `O=C(c1ccc(-c2cccc(C(F)(F)F)c2)cc1Cl)N1CCC(N2CCCC2)CC1` [Example 46, (3-Chloro-3′-trifluoromethyl-biphenyl-4-yl)-(4-pyrrolidin-1-yl-piperidin-1-yl)-methanone]: the IC50 turned out to be 122 nM. Take `Cc1nc(-c2cccc(C(F)(F)F)c2)nc(C)c1C(=O)N1CCC(N2CCCC2)CC1` [Example 13, [4,6-Dimethyl-2-(3-trifluoromethyl-phenyl)-pyrimidin-5-yl]-(4-pyrrolidin-1-yl-piperidin-1-yl)-methanone]: the IC50 was 190 nM. As for `Cc1cc(-c2cccc(OC(F)(F)F)c2)cc(C)c1C(=O)N1CCC(N2CCC[C@H]2CO)CC1` [Example 10, (3,5-Dimethyl-3′-trifluoromethoxy-biphenyl-4-yl)-[4-((S)-2-hydroxymethyl-pyrrolidin-1-yl)-piperidin-1-yl]-methanone], the figure is 39 nM; as for `Cc1cc(-c2cccc(C(F)(F)F)c2)nc(OCCO)c1C(=O)N1CCC(N2CCCC2)CC1` [Example 53, [2-(2-Hydroxy-ethoxy)-4-methyl-6-(3-trifluoromethyl-phenyl)-pyridin-3-yl]-(4-pyrrolidin-1-yl-piperidin-1-yl)-methanone], 11 nM; as for `Cc1cc(-c2cccc(OC(F)(F)F)c2)nc(C)c1C(=O)N1CCC(N2CCCC2)CC1` [Example 28, [2,4-Dimethyl-6-(3-trifluoromethoxy-phenyl)-pyridin-3-yl]-(4-pyrrolidin-1-yl-piperidin-1-yl)-methanone], 79 nM. Under `COc1cc(-c2cccc(C(F)(F)F)c2)cc(C)c1C(=O)N1CCC(N2CCCC2)CC1` [Example 44, (3-Methoxy-5-methyl-3′-trifluoromethyl-biphenyl-4-yl)-(4-pyrrolidin-1-yl-piperidin-1-yl)-methanone] stands 76 nM; under `Cc1cc(-c2cncc(C(F)(F)F)c2)nc(C)c1C(=O)N1CCC(N2CCCC2)CC1` [Example 42, (4,6-Dimethyl-5′-trifluoromethyl-[2,3′]bipyridinyl-5-yl)-(4-pyrrolidin-1-yl-piperidin-1-yl)-methanone], 240 nM. On to `Cc1cc(-c2cccc(C(F)(F)F)c2)nc(C)c1C(=O)N1CCC(N2CCCC2)CC1` [Example 27, [2,4-Dimethyl-6-(3-trifluoromethyl-phenyl)-pyridin-3-yl]-(4-pyrrolidin-1-yl-piperidin-1-yl)-methanone], for which the IC50 was determined as 21 nM.

With `O=C(c1c(F)cc(-c2cccc(C(F)(F)F)c2)cc1F)N1CCC(N2CCCC2)CC1` [Example 39, (3,5-Difluoro-3′-trifluoromethyl-biphenyl-4-yl)-(4-pyrrolidin-1-yl-piperidin-1-yl)-methanone], the IC50 is 89 nM. As for `Cc1cc(-c2cccc(C(F)(F)F)c2)cc(C)c1C(=O)N1CCC(N2CCCC2)CC1` [Example 2, (3,5-Dimethyl-3′-trifluoromethyl-biphenyl-4-yl)-(4-pyrrolidin-1-yl-piperidin-1-yl)-methanone], the figure is 21 nM.

For `Cc1cc(-c2cccc(OC(F)(F)F)c2)cc(C)c1C(=O)N1CCC(N2CCCC2)CC1` [Example 1, (3,5-Dimethyl-3′-trifluoromethoxy-biphenyl-4-yl)-(4-pyrrolidin-1-yl-piperidin-1-yl)-methanone], the IC50 turned out to be 60 nM.

With `Cc1cc(-c2cccc(OC(F)(F)F)c2)nc(C)c1C(=O)N1CCC(N2CCC[C@H]2CO)CC1` [Example 29, [2,4-Dimethyl-6-(3-trifluoromethoxy-phenyl)-pyridin-3-yl]-[4-((S)-2-hydroxymethyl-pyrrolidin-1-yl)-piperidin-1-yl]-methanone], the IC50 came out at 150 nM.

As for `Cc1cc(-c2cccc(C(F)(F)F)c2)nc(C)c1C(=O)N1CCC(N2CCC[C@H]2CO)CC1` [Example 30, [2,4-Dimethyl-6-(3-trifluoromethyl-phenyl)-pyridin-3-yl]-[4-((S)-2-hydroxymethyl-pyrrolidin-1-yl)-piperidin-1-yl]-methanone], the IC50 was found to be 67 nM.

In the case of `Cc1cc(-c2cccc(OC(F)(F)F)c2)ccc1C(=O)N1CCC(N2CCCC2)CC1` [Example 6, (3-Methyl-3′-trifluoromethoxy-biphenyl-4-yl)-(4-pyrrolidin-1-yl-piperidin-1-yl)-methanone], the IC50 worked out at 430 nM.

Consider `Cc1cc(-c2cccc(C(F)(F)F)c2)cc(O)c1C(=O)N1CCC(N2CCCC2)CC1` [Example 45, (3-Hydroxy-5-methyl-3′-trifluoromethyl-biphenyl-4-yl)-(4-pyrrolidin-1-yl-piperidin-1-yl)-methanone], for which the half-maximal inhibitory concentration (IC50) stood at 48 nM. As for `Cc1cc(-c2cccc(C(F)(F)F)c2)cc(C)c1C(=O)N1CCC(N2CCC(O)CC2)CC1` [Example 22, (3,5-Dimethyl-3′-trifluoromethyl-biphenyl-4-yl)-(4-hydroxy-[1,4′]bipiperidinyl-1′-yl)-methanone], the figure is 55 nM. For the compound `Cc1cc(-c2cncc(C(F)(F)F)c2)nc(C)c1C(=O)N1CCC(N2CCC[C@H]2CO)CC1` [Example 43, (4,6-Dimethyl-5′-trifluoromethyl-[2,3′]bipyridinyl-5-yl)-[4-((S)-2-hydroxymethyl-pyrrolidin-1-yl)-piperidin-1-yl]-methanone], the IC50 was determined as 480 nM. As for `Cc1cc(-c2cncc(C(F)(F)F)c2)cc(C)c1C(=O)N1CCC(N2CCC(O)CC2)CC1` [Example 24, [2,6-Dimethyl-4-(5-trifluoromethyl-pyridin-3-yl)-phenyl]-(4-hydroxy-[1,4′]bipiperidinyl-1′-yl)-methanone], the figure is 270 nM; as for `Cc1nc(-c2cccc(C(F)(F)F)c2)nc(C)c1C(=O)N1CCC(N2CCC[C@H]2CO)CC1` [Example 16, [4,6-Dimethyl-2-(3-trifluoromethyl-phenyl)-pyrimidin-5-yl]-[4-((S)-2-hydroxymethyl-pyrrolidin-1-yl)-piperidin-1-yl]-methanone], 310 nM.

Consider `Cc1cc(-c2cccc(C(F)(F)F)c2)ccc1C(=O)N1CCC(N2CCCC2)CC1` [Example 7, (3-Methyl-3′-trifluoromethyl-biphenyl-4-yl)-(4-pyrrolidin-1-yl-piperidin-1-yl)-methanone], for which the IC50 came out at 150 nM. As for `Cc1cc(-c2cncc(C(F)(F)F)c2)cc(C)c1C(=O)N1CCC(N2CCC[C@H]2CO)CC1` [Example 14, [2,6-Dimethyl-4-(5-trifluoromethyl-pyridin-3-yl)-phenyl]-[4-((S)-2-hydroxymethyl-pyrrolidin-1-yl)-piperidin-1-yl]-methanone], the IC50 amounted to 48 nM. Under `Cc1cc(-c2cccc(C(F)(F)F)c2)cc(C)c1C(=O)N1CCC(N2CCC[C@H]2CO)CC1` [Example 9, (3,5-Dimethyl-3′-trifluoromethyl-biphenyl-4-yl)-[4-((S)-2-hydroxymethyl-pyrrolidin-1-yl)-piperidin-1-yl]-methanone] stands 9 nM.

Take `Cc1nc(-c2cccc(C(F)(F)F)c2)nc(C2CC2)c1C(=O)N1CCC(N2CCC[C@H]2CO)CC1` [Example 19, [4-Cyclopropyl-6-methyl-2-(3-trifluoromethyl-phenyl)-pyrimidin-5-yl]-[4-((S)-2-hydroxymethyl-pyrrolidin-1-yl)-piperidin-1-yl]-methanone]: the IC50 came to 990 nM. As for `Cc1nc(-c2cccc(C(F)(F)F)c2)nc(C2CC2)c1C(=O)N1CCC(N2CCCC2)CC1` [Example 18, [4-Cyclopropyl-6-methyl-2-(3-trifluoromethyl-phenyl)-pyrimidin-5-yl]-(4-pyrrolidin-1-yl-piperidin-1-yl)-methanone], the figure is 490 nM. As for `Cc1cc(-c2cccc(C(F)(F)F)c2)nc(O)c1C(=O)N1CCC(N2CCCC2)CC1` [Example 51, [2-Hydroxy-4-methyl-6-(3-trifluoromethyl-phenyl)-pyridin-3-yl]-(4-pyrrolidin-1-yl-piperidin-1-yl)-methanone; 4-Methyl-3-(4-pyrrolidin-1-yl-piperidine-1-carbonyl)-6-(3-trifluoromethyl-phenyl)-1H-pyridin-2-one (tautomers)], the figure is 17 nM; as for `Cc1cc(-c2cccc(C(F)(F)F)c2)cc(-c2cccnc2)c1C(=O)N1CCC(N2CCCC2)CC1` [Example 48, (5-Methyl-3-pyridin-3-yl-3′ trifluoromethyl-biphenyl-4-yl)-(4-pyrrolidin-1-yl-piperidin-1-yl)-methanone], 16 nM. Under `COc1nc(-c2cccc(C(F)(F)F)c2)cc(C)c1C(=O)N1CCC(N2CCCC2)CC1` [Example 50, [2-Methoxy-4-methyl-6-(3-trifluoromethyl-phenyl)-pyridin-3-yl]-(4-pyrrolidin-1-yl-piperidin-1-yl)-methanone] stands 82 nM.

Consider `Cc1cc(-c2cccc(C(F)(F)F)c2)cc(-c2cncnc2)c1C(=O)N1CCC(N2CCCC2)CC1` [Example 47, (5-Methyl-3-pyrimidin-5-yl-3′-trifluoromethyl-biphenyl-4-yl)-(4-pyrrolidin-1-yl-piperidin-1-yl)-methanone], for which the IC50 worked out at 12 nM.

The values are drawn from patent US8153805B2, “Biaryl derivatives” (Hoffmann-La Roche Inc., priority 2007, dated 2012).
